# Source: patent US7456288B2, “Heterocyclic compounds and methods of making and using thereof” (Reddy US Therapeutics, Inc., priority 2003, dated 2008)
# Experiments:
# IL-6 = test: Glycated albumin-stimulated endothelial cell production of cytokine IL-6 (ELISA); type: cell-based; settings: read-out: % of inhibition of proinflammatory cytokine IL-6
# From the text: The effectiveness of the compounds of the present invention in inhibiting glycated protein- and AGE-induced inflammation can be determined using the assays described herein and in U.S. Provisional Patent Application Ser. No. 60/259,306, which is incorporated by reference in herein its entirety. Such assays comprise measurement of the specific activity of biological components involved in a known cellular response. The assays provide a measurable response in which the activity of the compounds is determined. One aspect of the present invention comprises measurement of the effects of compounds on an inflammatory response by cells to the presence of a stimulating agent. […] The amount of cytokines produced is determined by measurement protocols known to those skilled in the art. The compounds of the present invention are then added to the assay and the production of cytokines is measured. From the comparison of the assay without the compound with the assay with the compound, the biological effect of the compound can be determined. […]
# Assays comprise endothelial cells that are stimulated in an inflammatory response by the presence of the glycated protein, glycated human serum albumin. […] Preferably, although not required, the amount of cytokine produced is determined using immunological methods, such as ELISA assays. […]
# MCP-1 = test: Glycated albumin-stimulated endothelial cell production of cytokine MCP-1 (ELISA); type: cell-based; settings: read-out: % of inhibition of proinflammatory cytokine MCP-1; for inhibition at 5 µM: concentration 5 μM
# From the text: The effectiveness of the compounds of the present invention in inhibiting glycated protein- and AGE-induced inflammation can be determined using the assays described herein and in U.S. Provisional Patent Application Ser. No. 60/259,306, which is incorporated by reference in herein its entirety. Such assays comprise measurement of the specific activity of biological components involved in a known cellular response. The assays provide a measurable response in which the activity of the compounds is determined. One aspect of the present invention comprises measurement of the effects of compounds on an inflammatory response by cells to the presence of a stimulating agent. Yet another aspect of the present invention includes an assay comprising endothelial cells that are stimulated by the addition of a glycated protein, the stimulating agent. The endothelial cells respond by producing specific cytokines. The amount of cytokines produced is determined by measurement protocols known to those skilled in the art. The compounds of the present invention are then added to the assay and the production of cytokines is measured. From the comparison of the assay without the compound with the assay with the compound, the biological effect of the compound can be determined. The compound may have an inhibitory effect, a stimulatory effect, or no effect at all. Compounds for treatment of inflammation include those that have an inhibitory effect.
# Assays comprise endothelial cells that are stimulated in an inflammatory response by the presence of the glycated protein, glycated human serum albumin. Such endothelial cells produce cytokines. A method in accordance with the present invention comprises measurement of the amount of the cytokine IL-6, and another aspect of the present invention comprises measurement of the amount of the cytokine MCP-1. Preferably, although not required, the amount of cytokine produced is determined using immunological methods, such as ELISA assays. The methods of the present invention are not limited by the type of assay used to measure the amount of cytokine produced, and any methods known to those skilled in the art and later developed can be used to measure the amount of cytokines produced in response to the stimulating agent and to the compound having unknown activity.
# Glycated albumin stimulates endothelial production of IL-6 and MCP-1. […] Because of the well established role of these cytokines in vascular diseases, screening for compounds that block AGE-induction of these cytokines provides a novel approach for identifying therapeutic agents that block AGE-induced inflammation in vivo.
# Once the baseline response to the stimulating agent for the production of cytokines by the endothelial cells is established, thus comprising the control levels for the screening assay, the methods comprise addition of compounds having unknown activities. The effect of the compound on the baseline response is determined by comparing the amount of cytokine produced in the presence of the stimulating agent and the amount of cytokine produced in the presence of the stimulating agent and the compound of the present invention. In one method, compounds that have inhibitory effects on the inflammation of the cells in the presence of glycated albumin are then used as therapeutic agents. One or more compounds may be added to the screening assay. Combinations or mixtures of compounds can be added. Different amounts and formulations of the compounds are added to determine the effects on the screening assay. The screening assay also may be used to determine stimulatory compounds or compounds that have no effects in the assay.
structure (smiles),measurement,setting,value
C/C(=C1\SC(=O)NC1=O)c1ccc(OCCOc2c(-c3ccc(Cl)cc3)n(C)c3ccccc3c2=O)cc1,inhibition at 5 µM,IL-6; concentration 5 μM,49%
Cn1c(-c2ccc(Br)cc2)c(OCCOc2ccc(/C=C3/SC(=O)NC3=O)cc2)c(=O)c2ccccc21,inhibition at 5 µM,MCP-1,44%
C/C(=C1\SC(=O)NC1=O)c1ccc(OCCOc2c(-c3ccc(F)c(F)c3)n(C)c3ccccc3c2=O)cc1,inhibition at 4.4 µM,MCP-1; concentration 4.4 μM,50%
C/C(=C1/SC(=O)NC1=O)c1ccc(OCCOc2c(-c3ccc(F)c(F)c3)n(C)c3ccccc3c2=O)c(Cl)c1,inhibition at 5 µM,MCP-1,61%
CCn1c(-c2ccc(F)cc2)c(OCCOc2ccc(/C(C)=C3/SC(=O)NC3=O)cc2)c(=O)c2ccccc21,inhibition at 6.5 µM,MCP-1; concentration 6.5 μM,50%
C/C(=C1\SC(=O)NC1=O)c1ccc(OCCOc2c(-c3ccc(F)c(F)c3)n(C)c3ccccc3c2=O)c(F)c1,inhibition at 7 µM,MCP-1; concentration 7 μM,50%
"COc1cc(OC)c2c(=O)c(OCCOc3ccc(/C(C)=C4\SC(=O)NC4=O)cc3)c(-c3ccc(OC)c(OC)c3)oc2c1 [Example 1, 5-[-1-(4-{2-[2-(3,4-Dimethoxyphenyl)-5,7-dimethoxy-4-oxo-4h-3-chromenyloxy]ethoxy}phenyl)ethylidene]-1,3-thiazolane-2,4-dione]",melting point,,205 to 206 °C
"CCCc1nn(C)c2c(=O)n(CCNc3ccc(/C(C)=C4\SC(=O)NC4=O)cc3)c(-c3ccc(OC)c(OC)c3)nc12 [Example 46, 5-[(E,Z)-1-(4-{2-[5-(3,4-Dimethoxyphenyl)-1-methyl-7-oxo-3-propyl-6,7-dihydro-1H-pyrazolo[4,3-d]pyrimidin-6-yl]ethylamino}phenyl)ethylidene]1,3-thiazolane-2,4-dione]",melting point,,215 to 218 °C
C/C(=C1\SC(=O)NC1=O)c1ccc(OCCOc2c(-c3ccc(F)cc3)n(C)c3ccccc3c2=O)cc1 [drawing 117],inhibition at 4.64 µM,IL-6; concentration 4.64 μM,50%
C/C(=C1\SC(=O)NC1=O)c1ccc(OCCOc2c(-c3ccc(F)cc3)n(C)c3ccccc3c2=O)cc1 [drawing 118],inhibition at 7.9 µM,MCP-1; concentration 7.9 μM,50%
